Read-outs that look alike come from different tables or passages of the source.
Columns and labels:
[1] = single ingredient, doses of 15-24 grams/day; cited from earlier work
[2] = Earlier antibiotic treatment of the Example 2 subjects; assay type: in vivo, human; conditions: 500 mg twice daily
From the text: This can be compared to the subjects' situation before the study.

Row | SMILES | Side effects [1] | Side effects ([2]; 6-9 months) | Recurrence of UTI symptoms ([2]; after 6-9 months)
1 | O=C[C@@H](O)[C@@H](O)[C@H](O)[C@H](O)CO [D-mannose] | bloating, gas and diarrhea |  | 
2 | CC1=C(C(=O)O)N2C(=O)[C@@H](NC(=O)[C@H](N)c3ccccc3)[C@H]2SC1 [Cephalexin] |  | nausea, diarrhoea and yeast infections (oral and vaginal) | UTI symptoms had reoccurred after the course of antibiotics was completed
